Values after ≈ are worked out from the molar mass of the structure shown. “Also recorded” adds a separate entry of the source.
What was measured:
[1] = test system: patients with solid tumors and hematologic malignancies; assay: Phase 1/2 trial in solid tumors and hematologic malignancies: safety and tolerability; type: in vivo, human
Description: (§1) Methods: Phase 1/2 clinical trial in patients with solid tumors and hematologic malignancies evaluates escalating oral doses of the formulation disclosed herein at 10, 20, 30, 40, 50, 75 and 100 mg BID and 80 and 120 mg QD mg (NCT02440685). Phase 1 allows patients with solid tumors or hematologic malignancies; Phase 2 allows only patients with diffuse large B-Cell lymphoma (DLBCL), follicular lymphoma (FL) or mantle cell lymphoma (MCL). Endpoints include safety, tolerability, pharmacokinetics, serum markers of inflammation, and response using RECIST or Lugano Classification System, […]

[2] = Phase 1b study in atopic dermatitis: pharmacokinetics; type: in vivo, human
Description: Upon signing the informed consent, the each subject underwent screening assessments from Day −30 to Day −1 prior to study drug administration. On Day 1 (baseline), eligible subjects were randomized, subjected to the Day 1/baseline assessments and received Compound 1 at 20, 40 or 80 mg or placebo, dependent on cohort and randomization schedule. At this visit, PK/PD samples were collected at predose and up to 8 hours (or up to 12 hours at selected sites). Subjects were monitored in clinic for 2 hours following the first study drug administration. Subjects returned to the clinic on Day 2 for PK and PD samples (24 hours post dose).
Pre-dose PK and PD samples were collected on Days 8 and 29 (last day of treatment). On Day 15, PK/PD samples were also collected at pre-dose and up to 8 hours post-dose and subjects returned on Day 16 for PK and PD samples (24 hours post dose). Subjects came in for additional safety assessments on Days 8, 22 and 29, as well as at the end of the follow up period (Day 43). Disease assessments were conducted on Days 1, Day 15 and Day 29.
Assessment of PK variables: The following PK parameters for Compound 1 were derived from the concentration-time data of Compound 1 after the first and Day 15 dose administration in the fasted state, as data allowed: Cmax, tmax, AUC0-∞, AUC0-t, AUC0-24, λz, t1/2, CL/F and Vd/F

[3] = test system: lesional skin of subjects with atopic dermatitis; assay: Phase 1b study in atopic dermatitis: skin biopsy biomarkers; type: in vivo, human
Excerpt: Assessment of Pharmacodynamics/Biomarker Parameters: • 1. Change from baseline in inflammatory markers in serum (including immune markers and CRP) • 2. Change from baseline in molecular skin biomarkers (inflammatory and barrier) • 3. Change from baseline in cellular markers (including reduction in inflammatory cells) • 4. Change from baseline in epidermal thickness and barrier markers in skin biopsies. Assessments of Efficacy Investigator's Global Assessment
For each subject, a maximum of four skin biopsies were collected during this study. Two punch biopsy samples (one from lesional skin and one from non-lesional skin) were collected at Day 1 and one punch biopsy was collected from the same lesional skin (outside the scar of the previous biopsies) at Day 15 (optional for subjects) and Day 29.
A panel of biological markers were assessed to determine the effect of Compound 1 on the disease process. These may include, but are not limited to: • Serum cytokines and inflammatory markers • Molecular skin biomarkers (inflammatory and barrier) • Circulating and tissue resident cellular phenotyping • Epidermal thickness and barrier markers from skin biopsies • Other biomarkers related autoimmune or inflammatory diseases Results: […]

[4] = test system: JAK/STAT pathway in T cells (primary); assay: Inhibition of JAK/STAT pathway in T cells stimulated with various cytokines; type: cell-based; conditions: T cells (primary) stimulated by various cytokines
Description: FIG. 7A is a graph of the % of subjects to achieve EASI50 over time (Day 1 to Day 29) for a placebo and Compound 1 in the doses of 20 mg, 40 mg and 80 mg. FIG. 7B is a graph of the % of subjects to achieve EASI75 over time (Day 1 to Day 29) for a placebo and Compound 1 in the doses of 20 mg, 40 mg and 80 mg. […] FIG. 8A is a graph of the % CFB (percentage change from baseline) for EASI (decrease) for the placebo and Compound 1 in the doses of 20 mg, 40 mg and 80 mg. FIG. 8B is a graph of the % CFB for BSA (body surface area) (decrease) for the placebo and Compound 1 in the doses of 20 mg, 40 mg and 80 mg. FIG. 8C is a graph of the % CFB for IGA 0-1 (Investigator's Global Assessment) for the placebo and Compound 1 in the doses of 20 mg, 40 mg and 80 mg. FIG. 9 is a graph of day 15 plasma concentration for Compound 1 in the doses of 20 mg, 40 mg and 80 mg. […] In FIG. 10, the IC50 values were determined in biochemical kinase assays using purified partial or full length enzymes. FIG. 11 is a chart showing inhibition of Compound 1 in JAK/STAT pathway in T cells stimulated with various cytokines.

[5] = Phase 1/2 trial in solid tumors and hematologic malignancies: pharmacokinetics; type: in vivo, human
Description: as §1

[6] = test system: patients with solid tumors and hematologic malignancies; assay: Phase 1/2 trial in solid tumors and hematologic malignancies: response and serum markers; type: in vivo, human
Description: as §1

[7] = HCl stress study; type: physicochemical
Excerpt: (§2) Analytical studies for 2-(1-(4-((4-(4-hydroxypiperidin-1-yl)phenyl)amino)-5-oxo-5,6-dihydropyrimido[4,5-d]pyridazin-2-yl)piperidin-4-yl)acetonitrile are provided below in Tables 1-3: Table 1 provides the results of an HCl pH dependent solubility profile study, Table 2 provides the results of an HCl solubility profile in organic solvents, and Table 3 provides the results of an HCl stress study.

[8] = target: SYK (Homo sapiens, UniProt P43405); assay: Pre-clinical kinase inhibition, SYK; type: biochemical; conditions: pre-clinical studies
Excerpt: A formulation of the disclosure comprising 2-(1-(4-((4-(4-hydroxypiperidin-1-yl)phenyl)amino)-5-oxo-5,6-dihydropyrimido[4,5-d]pyridazin-2-yl)piperidin-4-yl)acetonitrile comprises a potent inhibitor of Spleen Tyrosine Kinase (SYK) and Janus Kinases (JAK).

[9] = HCl solubility profile in organic solvents; type: physicochemical; conditions: organic solvent or mixture
Excerpt: as §2

[10] = 10 mg-100 mg BID and 80-120 mg QD
[11] = human, plasma, oral, day 15, 20, 40 and 80 mg

## N#CCC1CCN(c2nc(Nc3ccc(N4CCC(O)CC4)cc3)c3c(=O)[nH]ncc3n2)CC1 [Compound 1, 2-(1-(4-((4-(4-hydroxypiperidin-1-yl)phenyl)amino)-5-oxo-5,6-dihydropyrimido[4,5-d]pyridazin-2-yl)piperidin-4-yl)acetonitrile]
[1]; [10]
  dose limiting adverse events: No dose limiting adverse events
  tolerability: safe and well tolerated
[1]; dose escalation continues
  MTD: has not been reached
[1]; e.g. headache, fatigue
  grade of most drug-related adverse events: Gr 1/2
[2]; 20, 40 and 80 mg once daily
  Dose dependence of exposure (Cmax, AUC), in words: dose-dependent Cmax and AUC; also recorded: dose-dependent exposure
  Inter- and intra-individual variability of PK, in words: low inter- and intra-individual variability; also recorded: minimum individual variability and accumulation
[2]; [11]
  Tmax: 2 to 4 h
  half-life: 10 to 14 h
[3]; 40 and 80 mg, Day 29
  T cell (CD3+) infiltration into all layers of the skin: reduced
[3]; 40 and 80 mg, as early as Day 15
  Myeloid DC (CD11c+) infiltration into all layers of the skin: reduced
[3]; particularly in the mid and high dose
  cutaneous biomarkers (cellular infiltrates, immune and hyperplasia markers): improvements in epidermal hyperplasia and cellular infiltrates observed as early as Day 15; also recorded: down regulates inflammatory pathways; also recorded: reversal of cutaneous biomarkers of inflammation
[3]; skin biopsies, 20, 40 and 80 mg
  total skin thickness: Reductions in total skin thickness can be observed as early as Day 15
[4]
  inhibition of JAK/STAT pathway: strong inhibition
[5]; 80 mg QD
  systemic exposure (in words): High systemic exposure
[5]; human, in vivo, steady-state, 40 mg BID, oral
  half-life: 18 h
[5]; human, in vivo, steady-state, 40 mg BID, oral, read-out: AUC (0-12 h)
  AUC(0-t): 6.3 µM·h
[5]; steady-state, 40 mg BID, oral
  Cmax: 0.7 µM
[6]; 3 months, a FL patient (Lugano, 6 prior lines)
  reduction in target lesions: About 50%
[6]; after 2 months (Lugano, 2 prior lines)
  response in a peripheral T-Cell lymphoma patient: stable disease and reduction of pruritus
[6]; all doses
  CRP, IL-18, MIP1β, VCAM-1, TNFR2 (serum markers of inflammation): Robust reduction
[6]; in vivo
  efficacy in NHL patients (in words): Encouraging preliminary evidence of efficacy
[7]; 1N HCl, rt, 24 hr
  % API based on Peak Area %: 100.00%
[7]; 1N NaOH, rt, 24 hr
  % API based on Peak Area %: 99.54%
[7]; 3% H2O2, rt, 30 hr
  % API based on Peak Area %: 83.00%
[7]; 80° C., 24 hr
  % API based on Peak Area %: 99.93%
[7]; UV, 23 hr
  % API based on Peak Area %: 99.80%
[8]
  IC50 against SYK: low nM
[9]; EtOH
  solubility: 5 mg/mL (≈ 10.8 mM)
[9]; IPA
  solubility: 0.462 mg/mL (≈ 1 mM)
[9]; MeOH
  solubility: 4.44 mg/mL (≈ 9.63 mM)

Source: US12036224B2, “Formulations, methods, kits, and dosage forms for treating atopic dermatitis and for improved stability of an active pharmaceutical ingredient” (Libertas Bio, Inc., priority 2017, dated 2024)
